Reference: article PMC10819809 (Microorganisms, 2024)
≈ marks a conversion by molar mass, not a printed value. Square brackets hold non-standard residues; d marks the D form. Peptide text beside a SMILES is read from it.

Tests used:
MTB = conditions: peptide 14D combined with another peptide; clinical trial, 255 samples from adults, routine test; cited from earlier work
M. tuberculosis H37Rv [1] = conditions: microdilution broth, 96-well, 2 × 10^5 CFU/mL, 37 °C 14 days, resazurin 48 h; conducted twice with three technical replicates each
MDR-TB = type: cell-based, Mycobacterium tuberculosis; set-up: key: Cord formation like wild type (without peptide) was classified as “normal”; no cord formation was detected, and they were classified as “not observed”; conditions: 10 µg/mL peptide; Nikon Ni-E microscope
M. tuberculosis H37Rv [2] = type: cell-based, Mycobacterium tuberculosis; set-up: key to Cord Formation at 10 µg/mL, H37Rv: Cord formation like wild type (without peptide) was classified as “normal”; no cord formation was detected, and they were classified as “not observed”; conditions: for Cord Formation at 10 µg/mL, H37Rv: 10 µg/mL peptide, Nikon Ni-E microscope
M. tuberculosis = type: cell-based, Mycobacterium tuberculosis; conditions: for TTP Values at Different Peptide Concentrations, 30 µg/mL: purified peptide 30 µg/mL, MGIT, BD BACTEC MGIT 320, TB alone 12 d 4 h

Compound: CC[C@@H](C)[C@@H](NC(=O)[C@@H](CCCCN)NC(=O)[C@H](N)Cc1c[nH]c2ccccc12)C(=O)N[C@@H](C(=O)N[C@H](Cc1ccccc1)C(=O)N[C@H](Cc1c[nH]c2ccccc12)C(=O)N[C@H](Cc1c[nH]c2ccccc12)C(=O)N[C@H](CCCNC(=N)N)C(=O)N[C@H](CCCNC(=N)N)C(N)=O)C(C)C [peptide 14D] (H-[dW][dK][dI][dV][dF][dW][dW][dR][dR]-NH2)
- increase in sample positivity rates (MTB): 46%
- MIC in µg/mL, H37Rv (M. tuberculosis H37Rv [1]): >50 µg/mL
- Cord Formation at 10 µg/mL, MDR-TB (MDR-TB): not observed
- Cord Formation at 10 µg/mL, H37Rv (M. tuberculosis H37Rv [2]): not observed
- effect on cord formation (M. tuberculosis H37Rv [2]; 1 and 10 µg/mL peptide): diminish cord formation

Compound: CC[C@@H](C)[C@@H](NC(=O)[C@@H](CCCCN)NC(=O)[C@H](N)Cc1c[nH]c2ccccc12)C(=O)N[C@H](CO)C(=O)N[C@H](Cc1ccccc1)C(=O)N[C@H](Cc1c[nH]c2ccccc12)C(=O)N[C@H](Cc1c[nH]c2ccccc12)C(=O)N[C@H](CCCNC(=N)N)C(=O)N[C@H](CCCNC(=N)N)C(N)=O [wkisfwwrr] (H-[dW][dK][dI][dS][dF][dW][dW][dR][dR]-NH2; N-terminus assumed)
- MIC in µg/mL, H37Rv (M. tuberculosis H37Rv [1]): 20 µg/mL (≈ 14.7 µM)
- Cord Formation at 10 µg/mL, MDR-TB (MDR-TB): normal
- Cord Formation at 10 µg/mL, H37Rv (M. tuberculosis H37Rv [2]): normal

Compound: CC[C@@H](C)[C@@H](NC(=O)[C@@H](CCCCN)NC(=O)[C@H](N)Cc1c[nH]c2ccccc12)C(=O)N[C@@H](C(=O)N[C@H](Cc1ccccc1)C(=O)NCC(=O)N[C@H](Cc1c[nH]c2ccccc12)C(=O)N[C@H](CCCNC(=N)N)C(=O)N[C@H](CCCNC(=N)N)C(N)=O)C(C)C [wkivfGwrr] (H-[dW][dK][dI][dV][dF]G[dW][dR][dR]-NH2; N-terminus assumed)
- MIC in µg/mL, H37Rv (M. tuberculosis H37Rv [1]): 20 µg/mL (≈ 16 µM)
- TTP Values at Different Peptide Concentrations, 30 µg/mL (M. tuberculosis): neg (55 d)
- Cord Formation at 10 µg/mL, MDR-TB (MDR-TB): normal
- Cord Formation at 10 µg/mL, H37Rv (M. tuberculosis H37Rv [2]): normal

Compound: CC[C@@H](C)[C@@H](NC(=O)[C@@H](CCCCN)NC(=O)[C@H](N)Cc1c[nH]c2ccccc12)C(=O)N[C@@H](C(=O)N[C@H](Cc1ccccc1)C(=O)N[C@H](CC(=O)O)C(=O)N[C@H](Cc1c[nH]c2ccccc12)C(=O)N[C@H](CCCNC(=N)N)C(=O)N[C@H](CCCNC(=N)N)C(N)=O)C(C)C [wkivfdwrr] (H-[dW][dK][dI][dV][dF][dD][dW][dR][dR]-NH2)
- MIC in µg/mL, H37Rv (M. tuberculosis H37Rv [1]): 20 µg/mL (≈ 15.3 µM)
- prolongation of TTP compared to the wild type (M. tuberculosis; 3 µg/mL purified peptide): approximately 22 days
- TTP Values at Different Peptide Concentrations, 30 µg/mL (M. tuberculosis): neg (55 d)
- Cord Formation at 10 µg/mL, MDR-TB (MDR-TB): not observed
- Cord Formation at 10 µg/mL, H37Rv (M. tuberculosis H37Rv [2]): not observed

Compound: CC[C@@H](C)[C@@H](NC(=O)[C@@H](CCCCN)NC(=O)[C@H](N)Cc1c[nH]c2ccccc12)C(=O)N[C@@H](C(=O)N[C@H](Cc1ccccc1)C(=O)N[C@H](CC(N)=O)C(=O)N[C@H](Cc1c[nH]c2ccccc12)C(=O)N[C@H](CCCNC(=N)N)C(=O)N[C@H](CCCNC(=N)N)C(N)=O)C(C)C [wkivfnwrr] (H-[dW][dK][dI][dV][dF][dN][dW][dR][dR]-NH2; N-terminus assumed)
- MIC in µg/mL, H37Rv (M. tuberculosis H37Rv [1]): 20 µg/mL (≈ 15.3 µM)
- Cord Formation at 10 µg/mL, MDR-TB (MDR-TB): normal
- Cord Formation at 10 µg/mL, H37Rv (M. tuberculosis H37Rv [2]): normal

Compound: NH2-wkivfiwrr-CONH2 [14D, position 6 w substituted by i, C-terminal amidated]
- reduction of TTP compared to the wild-type peptide 14D (M. tuberculosis; 3 µg/mL purified peptide): 25 h
- reduction of TTP relative to the untreated control (M. tuberculosis; 3 µg/mL purified peptide): 56 h
